In one assay the target is T1, hNav1.2 (Homo sapiens, UniProt Q99250).
T1 construct: host or cells: HEK293
As to the kind of experiment: FLIPR membrane potential assay, hNav1.2. It counts as cell-based. Summed up:
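Stable HEK293 lines expressing each human Nav subtype were plated 48 h before the assay and loaded with red membrane potential dye for 30 min at 37 °C.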

The target of the next assay is T2, hNav1.3 (Homo sapiens, UniProt Q9NY46).
T2 construct: host or cells: HEK293
As to the kind of experiment: Automated patch clamping (QPatch-16), hNav1.3. It counts as cell-based. Conditions: mean±SEM. The method, then:
(§1) HEK293 cells stably expressing hNav1.1-1.7 or CHO cells stably expressing hNav1.8 (as described in Example 3 above) were cultured in a T-175 flask in selection antibiotic-free media at 37° C. Cells were grown to 70-80% confluence and harvested using Detachin (Bio-Scientific, NSW, Australia) at 37° C. for 2 min. Dissociated cells were then resuspended in Ex-Cell ACF CHO Medium with HEPES (25 mM; Sigma-Aldrich Co.) and allowed to recover on the QStirrer for 30 min.
(§2) The extracellular solution contained in mM: NaCl 145, KCl 4, CaCl2 2, MgCl2 1, HEPES 10 and glucose 10. The pH was adjusted to 7.4 with NaOH and osmolarity was adjusted with sucrose to 305 mOsm. The intracellular solution contained in mM: CsF 140, ethylene glycol tetraacetic acid (EGTA)/CsOH 1/5, HEPES 10 and NaCl 10. The pH was adjusted to 7.3 with CsOH and osmolarity adjusted with sucrose to 320 mOsm. […]
(§3) The current-voltage (IV) curve was constructed with a holding potential of −80 mV followed by a pre-pulse of −100 mV for 50 ms and a series of 50 ms step pulses that ranged from −80 to 50 mV in 5 mV increments before returning to a holding potential of −80 mV. Voltage-dependence of activation was determined as normalized Nav conductance (GNa) using: GNa=INa/(Vmemb−Vrev), where Vmemb is the membrane potential and Vrev is the reversal potential for each cell. […]
A general note: Patch clamp records ionic current or voltage across a cell membrane.

The next assay has as its target T3, hNav1.4 (Homo sapiens, UniProt P35499).
T3 construct: host or cells: HEK293
Kind of assay: Automated patch clamping (QPatch-16), hNav1.4. It counts as cell-based. The method, then: as §1, §2, §3

For a further assay, the target named is T4, hNav1.9 (Homo sapiens, UniProt Q9UI33).
T4 construct: expressed in transfected cells; host or cells: HEK293
T4 sequence (Q9UI33 whole entry): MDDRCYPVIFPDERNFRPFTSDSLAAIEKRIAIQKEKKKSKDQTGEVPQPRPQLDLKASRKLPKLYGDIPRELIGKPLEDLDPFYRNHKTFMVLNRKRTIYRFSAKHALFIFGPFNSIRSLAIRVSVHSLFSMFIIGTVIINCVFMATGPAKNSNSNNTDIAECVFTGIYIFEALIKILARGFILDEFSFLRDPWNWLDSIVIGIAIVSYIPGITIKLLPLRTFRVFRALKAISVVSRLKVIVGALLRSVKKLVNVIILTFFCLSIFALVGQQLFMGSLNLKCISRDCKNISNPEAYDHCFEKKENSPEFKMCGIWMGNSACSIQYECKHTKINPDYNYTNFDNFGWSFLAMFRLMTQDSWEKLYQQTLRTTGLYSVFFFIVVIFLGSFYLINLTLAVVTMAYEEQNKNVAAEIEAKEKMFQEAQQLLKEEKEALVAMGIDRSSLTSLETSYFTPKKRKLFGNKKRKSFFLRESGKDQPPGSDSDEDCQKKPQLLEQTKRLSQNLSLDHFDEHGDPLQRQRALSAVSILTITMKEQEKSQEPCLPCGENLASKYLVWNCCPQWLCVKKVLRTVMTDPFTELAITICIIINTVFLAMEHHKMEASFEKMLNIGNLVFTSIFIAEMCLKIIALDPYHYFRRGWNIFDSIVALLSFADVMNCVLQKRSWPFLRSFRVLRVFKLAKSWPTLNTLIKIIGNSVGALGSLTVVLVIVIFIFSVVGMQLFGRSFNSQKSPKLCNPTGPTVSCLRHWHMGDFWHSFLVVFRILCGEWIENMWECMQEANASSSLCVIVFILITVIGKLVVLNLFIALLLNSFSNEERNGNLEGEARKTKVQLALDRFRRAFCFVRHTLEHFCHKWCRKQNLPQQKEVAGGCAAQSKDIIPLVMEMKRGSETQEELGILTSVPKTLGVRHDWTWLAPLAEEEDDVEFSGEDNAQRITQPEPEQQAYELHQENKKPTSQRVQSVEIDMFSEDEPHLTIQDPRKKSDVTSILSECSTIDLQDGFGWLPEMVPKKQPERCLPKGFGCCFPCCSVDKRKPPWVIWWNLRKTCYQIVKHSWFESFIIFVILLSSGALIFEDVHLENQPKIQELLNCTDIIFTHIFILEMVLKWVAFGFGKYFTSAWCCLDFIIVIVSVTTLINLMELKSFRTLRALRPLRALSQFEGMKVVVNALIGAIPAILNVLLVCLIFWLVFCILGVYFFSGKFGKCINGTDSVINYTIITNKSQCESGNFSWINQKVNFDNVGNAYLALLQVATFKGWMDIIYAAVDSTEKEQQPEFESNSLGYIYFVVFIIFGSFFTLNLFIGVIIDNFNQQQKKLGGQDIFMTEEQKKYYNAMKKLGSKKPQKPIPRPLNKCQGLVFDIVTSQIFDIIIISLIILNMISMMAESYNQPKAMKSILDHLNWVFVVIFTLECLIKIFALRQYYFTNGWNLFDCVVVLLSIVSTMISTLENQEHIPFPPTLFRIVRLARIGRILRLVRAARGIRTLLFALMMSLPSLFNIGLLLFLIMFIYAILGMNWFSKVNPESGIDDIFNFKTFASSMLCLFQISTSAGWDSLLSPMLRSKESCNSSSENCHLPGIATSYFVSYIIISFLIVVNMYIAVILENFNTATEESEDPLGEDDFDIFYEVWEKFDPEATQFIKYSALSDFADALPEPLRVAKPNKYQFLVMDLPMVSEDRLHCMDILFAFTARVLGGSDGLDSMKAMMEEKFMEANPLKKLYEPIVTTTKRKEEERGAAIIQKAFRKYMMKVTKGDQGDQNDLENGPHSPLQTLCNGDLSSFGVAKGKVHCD
As to the kind of experiment: Automated patch clamp (PatchXpress), hNav1.9. It counts as cell-based. The method, then: Cells were triturated until a single cell suspension was achieved. […] Cell aliquots of 5 mL (1×10^6 cells) were placed in a 15 mL centrifuge tube and spun at 100×g for 2 minutes.

Assay [1] has as its system ciguatoxin-induced spontaneous pain in mice. As to the kind of experiment: Ciguatoxin-induced spontaneous pain. It counts as in vivo. Conditions: intraplantar, co-injected with ciguatoxin. The protocol: (§4) For behavioural assessment adult male C57BL/6J mice aged 6-8 weeks were used. Animals were housed in groups of 3 or 4 per cage, under 12 h light-dark cycles and had standard rodent chow and water ad libitum.
Ciguatoxin (P-CTX-1; isolated in accordance with the protocol of Hamilton et al. (2002) Toxicon, 40(6): 685-693) was diluted in phosphate-buffered saline/0.1% BSA (10 nM) and administered by shallow subcutaneous (intraplantar) injection to the left hind paw of mice in a volume of 40 μL under light isoflurane (3%) anesthesia. Mice were then placed individually into polyvinyl boxes (10×10×10 cm), and spontaneous pain behavior (licks and flinches) was counted by an investigator unaware of the treatments received from video recordings for 10 min post-injection.

The subject of assay [2] is post-operative pain in mice. As to the kind of experiment: Post-operative pain (plantar incision). It counts as in vivo. Conditions: 24 h after incision. The protocol: as §4
Mechanical allodynia was assessed using an electronic von Frey apparatus (MouseMet Electronic von Frey, TopCat Metrology Ltd, United Kingdom). Mice were habituated in individual mouse runs for at least 5 min prior to testing. A soft-tipped 0.3 mm diameter flat-ended polypropylene probe was applied to the plantar surface of each hind paw with pressured applied at a force rise rate of ˜1 g/s. The force that elicited paw withdrawal was calculated using the MouseMet Software. The paw withdrawal force (PWF) was determined from the average of three tests, separated by at least 2 min.
To induce post-operative (post-surgical) pain, the plantar skin of the hind paw of mice was incised under light isoflurane (3%) anaesthesia. Briefly, a 7 mm longitudinal incision was made through the skin and fascia 3 mm from the proximal edge of the heel using a sterile surgical scalpel (#11). The underlying plantaris muscle was elevated and also incised longitudinally. The wound was closed with two silk sutures. Mechanical allodynia was assessed 24 h after the incisional injury.

These results are taken from patent publication US10662229B2, “Spider venom peptides and methods of use for modulating sodium channels” (priority 2016, dated 2020).

Broadly, the IC50 is the concentration at which inhibition is half-maximal. A high value points to weaker potency.

SMILES strings stand for the structures.

T1 sequence (Q99250 whole entry): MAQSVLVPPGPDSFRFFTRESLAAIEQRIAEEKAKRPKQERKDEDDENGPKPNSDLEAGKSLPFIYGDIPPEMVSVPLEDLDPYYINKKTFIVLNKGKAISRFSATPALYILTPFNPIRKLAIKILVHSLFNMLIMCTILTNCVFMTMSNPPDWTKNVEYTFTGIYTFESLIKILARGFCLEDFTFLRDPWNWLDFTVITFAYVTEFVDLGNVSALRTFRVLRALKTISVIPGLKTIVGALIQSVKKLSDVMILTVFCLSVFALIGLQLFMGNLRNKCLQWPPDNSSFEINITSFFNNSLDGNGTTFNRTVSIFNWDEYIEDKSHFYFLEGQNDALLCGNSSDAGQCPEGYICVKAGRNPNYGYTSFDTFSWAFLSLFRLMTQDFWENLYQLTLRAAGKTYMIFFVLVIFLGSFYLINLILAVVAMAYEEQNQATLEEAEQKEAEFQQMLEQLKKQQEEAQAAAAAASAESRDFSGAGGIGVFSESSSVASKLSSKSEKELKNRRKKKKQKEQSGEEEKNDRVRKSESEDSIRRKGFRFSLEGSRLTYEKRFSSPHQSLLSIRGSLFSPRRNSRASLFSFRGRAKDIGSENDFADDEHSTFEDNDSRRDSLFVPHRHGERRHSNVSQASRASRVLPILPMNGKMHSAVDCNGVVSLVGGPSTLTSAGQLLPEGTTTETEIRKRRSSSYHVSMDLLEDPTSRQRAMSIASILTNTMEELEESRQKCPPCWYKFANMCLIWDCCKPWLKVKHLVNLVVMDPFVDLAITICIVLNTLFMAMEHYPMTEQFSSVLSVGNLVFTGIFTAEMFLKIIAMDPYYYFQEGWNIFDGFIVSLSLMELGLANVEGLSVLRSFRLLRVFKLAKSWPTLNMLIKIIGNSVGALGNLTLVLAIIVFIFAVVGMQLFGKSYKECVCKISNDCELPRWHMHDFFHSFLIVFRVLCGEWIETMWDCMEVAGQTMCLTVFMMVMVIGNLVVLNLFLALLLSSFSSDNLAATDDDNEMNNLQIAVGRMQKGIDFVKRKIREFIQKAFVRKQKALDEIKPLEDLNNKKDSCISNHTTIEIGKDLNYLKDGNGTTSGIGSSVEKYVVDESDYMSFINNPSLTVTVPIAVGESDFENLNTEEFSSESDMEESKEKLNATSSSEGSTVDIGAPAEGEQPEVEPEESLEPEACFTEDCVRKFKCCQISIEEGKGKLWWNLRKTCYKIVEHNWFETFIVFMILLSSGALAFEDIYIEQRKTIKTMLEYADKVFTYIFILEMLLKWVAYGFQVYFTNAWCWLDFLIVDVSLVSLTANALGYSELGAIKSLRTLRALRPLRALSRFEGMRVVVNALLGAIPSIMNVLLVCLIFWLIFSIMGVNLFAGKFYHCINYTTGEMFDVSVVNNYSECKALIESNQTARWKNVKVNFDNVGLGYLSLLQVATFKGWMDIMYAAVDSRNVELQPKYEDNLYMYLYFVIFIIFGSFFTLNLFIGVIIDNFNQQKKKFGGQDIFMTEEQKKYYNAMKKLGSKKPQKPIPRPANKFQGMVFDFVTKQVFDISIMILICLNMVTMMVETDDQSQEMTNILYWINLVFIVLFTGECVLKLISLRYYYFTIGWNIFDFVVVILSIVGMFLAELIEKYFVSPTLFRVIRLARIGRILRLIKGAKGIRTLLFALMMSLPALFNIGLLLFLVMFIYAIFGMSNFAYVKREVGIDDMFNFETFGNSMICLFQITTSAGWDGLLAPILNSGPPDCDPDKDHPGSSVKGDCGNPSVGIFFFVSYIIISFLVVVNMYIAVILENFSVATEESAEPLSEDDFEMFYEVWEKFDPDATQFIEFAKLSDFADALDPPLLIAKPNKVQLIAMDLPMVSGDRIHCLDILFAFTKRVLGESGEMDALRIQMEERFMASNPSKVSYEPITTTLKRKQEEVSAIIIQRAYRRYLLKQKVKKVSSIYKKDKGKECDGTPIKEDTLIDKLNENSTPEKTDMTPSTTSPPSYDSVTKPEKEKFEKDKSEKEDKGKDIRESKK

Take `CSCC[C@@H]1NC(=O)[C@H](Cc2ccc(O)cc2)NC(=O)[C@H](CCCNC(=N)N)NC(=O)[C@@H](NC(=O)[C@@H](N)CC(=O)O)CSSC[C@@H]2NC(=O)[C@@H]3CSSC[C@@H](C(=O)N[C@@H](C)C(=O)N[C@@H](Cc4c[nH]c5ccccc45)C(=O)N[C@@H](CC(=O)O)C(=O)N[C@@H](Cc4ccccc4)C(=O)N[C@H](C(=O)N[C@@H](Cc4ccccc4)C(=O)N[C@H](C(=O)O)[C@@H](C)O)[C@@H](C)O)NC(=O)[C@H](Cc4ccc(O)cc4)NC(=O)[C@H](CCCCN)NC(=O)[C@H](CCSC)NC(=O)[C@H](CCCCN)NC(=O)[C@H](CCCNC(=N)N)NC(=O)[C@H](CCCCN)NC(=O)[C@H](CSSC[C@H](NC(=O)[C@H](CC(=O)O)NC(=O)CNC(=O)[C@H](Cc4ccccc4)NC1=O)C(=O)N[C@@H](CCC(=O)O)C(=O)N[C@@H](CCCCN)C(=O)N[C@@H](CC(=O)O)C(=O)N[C@@H](CCC(=O)O)C(=O)N[C@@H](CC(=O)O)C(=O)N3)NC(=O)CNC(=O)[C@H](CC(C)C)NC(=O)[C@H](Cc1cnc[nH]1)NC(=O)[C@H](CCCCN)NC2=O` [Pnc1a]: the half-maximal inhibitory concentration (IC50) against hNav1.2 is 2950 nM; against hNav1.4, 158 nM; against hNav1.9, 2340 nM. Also, the “pIC50 Nav1.3” value on hNav1.3 is listed as 6.68±0.1 M. Also, in assay [1], the “ciguatoxin-induced spontaneous pain behaviours” value was “significantly reduced”. Besides, the “mechanical threshold of the injured paw compared to vehicle” value in assay [2] (intraperitoneal 3 mg/kg) and in assay [2] (intraplantar 3 μM) was “significantly increased” in each case.
